Test results published in US7101878B1 (Agouron Pharmaceuticals, Inc., priority 1998, dated 2006).
Like-named read-outs stand apart in the source and are kept apart here. Where a SMILES comes first, the peptide text is derived from it. [ ]: non-standard residue; d: D form. The star is where a group is joined. dPhe(4-Cl) = N[C@H](Cc1ccc(Cl)cc1)C(=O)O; d2Nal = N[C@H](Cc1ccc2ccccc2c1)C(=O)O; Lys(iPr) = CC(C)NCCCC[C@H](N)C(=O)O; d3Pal = N[C@H](Cc1cccnc1)C(=O)O; Nicotinoyl = O=C(c1cccnc1)*

What was measured:
mouse GnRH receptor = target: T1, mouse GnRH receptor (Mus musculus, UniProt Q01776); assay: Radioligand binding, 125I-GnRH-A, 293 cells expressing mouse GnRH receptors
T1 construct: expressed in transfected cells; host or cells: 293 cells
T1 sequence (Q01776 1-327): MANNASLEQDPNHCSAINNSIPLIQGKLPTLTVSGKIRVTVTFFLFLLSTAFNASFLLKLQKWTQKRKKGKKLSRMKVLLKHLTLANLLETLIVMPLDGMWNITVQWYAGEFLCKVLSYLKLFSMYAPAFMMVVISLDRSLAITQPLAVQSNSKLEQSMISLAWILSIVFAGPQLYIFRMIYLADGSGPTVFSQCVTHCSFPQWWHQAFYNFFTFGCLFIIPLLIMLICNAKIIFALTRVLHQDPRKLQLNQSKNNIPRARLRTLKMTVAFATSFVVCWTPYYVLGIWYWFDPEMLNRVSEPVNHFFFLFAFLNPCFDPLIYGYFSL
Method in brief: (§1)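 Bound label captured on 0.1% polyethyleneimine-treated GF/C filters, washed three times with PBS, counted. IC50 derived; identical set-up for every species.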

hGnRH receptor = target: T2, hGnRH receptor (Homo sapiens, UniProt P30968); assay: Total inositol phosphates measurement, 293 cells containing the hGnRH receptor; type: cell-based; details: for GnRH functional: no species or readout annotated
T2 construct: expressed in transfected cells; host or cells: HEK 293 (hGnRH-R/293, from Dr. Stuart Sealfon)
T2 sequence (P30968 1-328): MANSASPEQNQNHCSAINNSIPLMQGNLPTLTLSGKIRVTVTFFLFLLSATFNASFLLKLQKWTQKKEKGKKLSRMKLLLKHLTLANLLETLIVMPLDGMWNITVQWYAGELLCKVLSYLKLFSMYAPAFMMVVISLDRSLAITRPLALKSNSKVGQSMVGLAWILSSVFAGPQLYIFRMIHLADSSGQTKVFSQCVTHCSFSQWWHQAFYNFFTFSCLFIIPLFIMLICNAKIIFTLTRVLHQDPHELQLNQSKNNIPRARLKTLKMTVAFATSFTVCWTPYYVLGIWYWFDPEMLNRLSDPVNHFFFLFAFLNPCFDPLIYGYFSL
Protocol: To assess the activity of the compounds as agonists or antagonists, an assay measuring accumulation of total inositol phosphates was employed. 293 cells containing the hGnRH receptor were plated onto 24-well plates (approximately 200,000 cells/well) using DMEM media. […] The medium was aspirated and the cells rinsed with serum-free DMEM. The medium was aspirated and the cells were then treated with test compounds or vehicle for 30 minutes at 37° C. […] The media was replaced with ice-cold 10 mM formic acid, which stopped the reaction and also served to extract cellular lipids. Inositol phosphates were separated by ion-exchange chromatography on Dowex columns, which were washed with 2.5 mL of 10 mM myoinositol and 10 mM formic acid. The columns were then washed with 5 mL of 60 mM sodium formate and […], and total inositol phosphates were eluted with 5 mL 1M ammonium formate, 0.1 M formic acid. The column eluates were added to liquid scintillation vials containing 15 ml of scintillation cocktail and were counted by liquid scintillation counting.
This cell line was provided by Dr. Stuart Sealfon, Mount Sinai Medical School New York, N.Y. These cells were grown in DMEM supplemented with 0.2 g/L G418 100 U/ml penicillin/streptomycin and 10% FBS. Both GGH3 and hGnRH-R/293 cells were utilized for both for both total inositol phosphate measurement and for microphysiometry assessment of compound efficacy.

human GnRH receptor = target: T3, human GnRH receptor (Homo sapiens, UniProt P30968); assay: Radioligand binding, 125I-GnRH-A displacement, membranes of HEK 293 cells with human GnRH receptor
T3 construct: expressed in transfected cells; host or cells: HEK 293 (hGnRH-R/293, from Dr. Stuart Sealfon)
T3 sequence (P30968 1-328): T2 sequence (P30968 1-328)
Method in brief: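 Bound tracer was separated by filtration through polyethyleneimine-soaked GF/C filters and counted by liquid scintillation. IC50 from curve fitting; other species were tested under the same conditions.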

rat GnRH receptor = target: T4, rat GnRH receptor (Rattus norvegicus, UniProt P30969); assay: Radioligand binding, 125I-GnRH-A, rat pituitary membranes; set-up: membranes were prepared from rat pituitary; from tissue; host or cells: rat pituitary
T4 sequence (P30969 1-327): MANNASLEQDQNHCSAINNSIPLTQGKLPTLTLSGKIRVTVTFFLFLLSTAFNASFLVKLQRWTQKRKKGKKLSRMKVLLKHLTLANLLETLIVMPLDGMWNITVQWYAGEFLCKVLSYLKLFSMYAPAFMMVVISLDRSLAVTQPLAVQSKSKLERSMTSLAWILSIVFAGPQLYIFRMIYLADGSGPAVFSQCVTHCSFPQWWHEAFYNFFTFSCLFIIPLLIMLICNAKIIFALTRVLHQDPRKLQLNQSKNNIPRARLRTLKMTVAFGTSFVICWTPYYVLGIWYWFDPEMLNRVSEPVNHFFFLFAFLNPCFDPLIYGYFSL
Method in brief: as §1

D2 Dopamine = D2 Dopamine (Homo sapiens, UniProt P14416); assay: Selectivity: D2 Dopamine
Sequence of D2 Dopamine (P14416 whole entry): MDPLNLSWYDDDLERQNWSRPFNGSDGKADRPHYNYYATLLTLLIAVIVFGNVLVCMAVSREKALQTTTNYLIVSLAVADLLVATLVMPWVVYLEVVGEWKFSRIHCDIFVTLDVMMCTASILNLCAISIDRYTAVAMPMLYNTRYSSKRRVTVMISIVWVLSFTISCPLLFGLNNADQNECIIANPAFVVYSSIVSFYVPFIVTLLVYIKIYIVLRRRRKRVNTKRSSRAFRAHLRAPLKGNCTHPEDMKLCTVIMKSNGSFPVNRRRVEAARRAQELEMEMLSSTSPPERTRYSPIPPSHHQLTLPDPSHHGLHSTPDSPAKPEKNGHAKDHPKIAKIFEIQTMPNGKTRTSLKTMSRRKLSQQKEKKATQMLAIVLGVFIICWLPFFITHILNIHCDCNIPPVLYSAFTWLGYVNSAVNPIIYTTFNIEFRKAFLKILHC

[1] = Pharmacokinetic studies / bioavailability in rats; type: in vivo, rat; details: for Cmax / Tmax: po
[2] = Metabolism rate, pmol/min/mg at 1 μM, rat male; type: in vitro ADME; details: 1 μM compound
[3] = means ± SE of at least three experiments performed in duplicate, read-out: Mouse IC50
[4] = means ± SE of at least three experiments performed in duplicate, read-out: Human IC50
[5] = means ± SE of at least three experiments performed in duplicate, read-out: Rat IC50
[6] = second value marked * (mostly in parentheses), asterisk not explained, read-out: hGnRH IC50, value marked *
[7] = male, rat, plasma, iv, 10 mg/kg, rat male
[8] = male, rat, plasma, 10 mg/kg, rat male, p.o. 10 mg/kg, vehicle per footnote
[9] = male, rat, plasma, 20 mg/kg, rat male, p.o. 20 mg/kg, vehicle per footnote (DMSO/cremophor/saline)
[10] = female, rat, plasma, 10 mg/kg, rat female, p.o. 10 mg/kg, 5 mg/ml solution in 10% DMSO 10% cremophor 80% saline
[11] = female, rat, plasma, rat female
[12] = rat female, 5 mg/ml solution in 10% DMSO 10% cremophor 80% saline

Row | IC50 (mouse GnRH receptor; read-out: mGnRH IC50) | IC50 (human GnRH receptor; read-out: hGnRH IC50) | IC50 (rat GnRH receptor; read-out: rGnRH IC50) | half-life [1, 7] | Rat male pmol/min/mg 1 μM [2] | GnRH functional (hGnRH receptor) | SMILES | IC50 (mouse GnRH receptor; [3]) | IC50 (human GnRH receptor; [4]) | IC50 (rat GnRH receptor; [5]) | Kb (hGnRH receptor) | IC50 (human GnRH receptor; [6]) | Ki (D2 Dopamine) | other results
1 | 0.05 µM | 0.19 µM | 0.009 µM | 3 h |  |  | Cc1cc2c(cc1Cc1ccc(C(=O)NCC3CCCC(CNc4nccc(NCC5CCCO5)n4)C3)o1)C(C)(C)CCC2(C)C (stereo not shown) [Compound 11] | 0.05 ± 0.01 µM | 0.19 ± 0.04 µM | 0.009 ± 0.0003 µM |  | 0.08 µM | 0.15 µM | Cmax [1, 8]: 150 nM; Tmax [1, 8]: 1.5 to 3.5 h; concentration at 4 h ([1]; rat, plasma, iv, four hours after i.v. injection, 10 mg/kg): 100 to 200 nM
2 | 0.006 µM | 0.05 µM | 0.006 µM | 0.967 h | 2393 pmol/min/mg |  | Cc1cc2c(cc1Cc1ccc(C(=O)NCc3cccc(CNc4nccc(NCC5CCCO5)n4)c3)o1)C(C)(C)CCC2(C)C (stereo not shown) [Compound 70] |  |  |  |  |  |  | 
3 | 0.0073 µM | 0.0074 µM | 0.0057 µM | 2.2 h | 2930 pmol/min/mg | Antag- onist | COc1cc(OC)c(NC(=O)c2ccc(Cc3cc4c(cc3C)C(C)(C)CCC4(C)C)o2)c(OC)c1C#N [Compound 177] |  |  |  |  |  |  | bioavailability ([1]; plasma, ip, rat, i.p. 20 mg/kg, read-out: Bioavailability after i.p. dosing): 8%; Fp.o. ([1]; rat male, p.o. 20 mg/kg, vehicle per footnote (DMSO/cremophor/saline)): 0 (20 mg/kg)^9%

Continued, compound first:

Row | SMILES | IC50 (mouse GnRH receptor; read-out: mGnRH IC50) | IC50 (human GnRH receptor; read-out: hGnRH IC50) | IC50 (rat GnRH receptor; read-out: rGnRH IC50) | half-life [1, 7] | Rat male pmol/min/mg 1 μM [2] | GnRH functional (hGnRH receptor) | IC50 (mouse GnRH receptor; [3]) | IC50 (human GnRH receptor; [4]) | IC50 (rat GnRH receptor; [5]) | Kb (hGnRH receptor) | IC50 (human GnRH receptor; [6]) | Ki (D2 Dopamine) | other results
4 | CC(=O)N[C@H](Cc1ccc2ccccc2c1)C(=O)N[C@H](Cc1ccc(Cl)cc1)C(=O)N[C@H](Cc1cccnc1)C(=O)N[C@@H](CO)C(=O)N[C@@H](CCCCNC(=O)c1cccnc1)C(=O)N[C@H](CCCCNC(=O)c1cccnc1)C(=O)N[C@@H](CC(C)C)C(=O)N[C@@H](CCCCNC(C)C)C(=O)N1CCC[C@H]1C(=O)N[C@H](C)C(N)=O [Antide, reference compound] (Ac-[d2Nal][dPhe(4-Cl)][d3Pal]SK(Nicotinoyl)[dK](Nicotinoyl)L[Lys(iPr)]P[dA]-NH2) |  |  |  |  |  |  | 0.00025 ± 5e-05 µM | 0.00067 ± 9e-05 µM | 0.00019 ± 4e-05 µM |  |  |  | stimulation of total [3H]inositol phosphates by compound alone (hGnRH receptor; compound alone, no GnRH): Neither compound alone stimulated an increase; inhibition of GnRH-stimulated total inositol phosphate accumulation (hGnRH receptor; half-maximal concentration of GnRH (1 nM)): able to inhibit the stimulation
5 | Cc1cc2c(cc1Cc1ccc(C(=O)NC[C@H]3CC[C@H](CNC(=N)N)CC3)o1)C(C)(C)CCC2(C)C [Compound 10] | 1.4 µM | 0.13 µM | 0.39 µM |  |  |  | 1.4 ± 0.44 µM | 0.13 ± 0.024 µM | 0.39 ± 0.01 µM | 0.095 µM | 0.02 µM |  | 
6 | Cc1cc2c(cc1Cc1ccc(C(=O)NC[C@H]3CC[C@H](C(=O)O)CC3)o1)C(C)(C)CCC2(C)C [Compound 12] | 7.13 µM | 0.23 µM | 3.08 µM | 0.6 h |  |  | 7.13 ± 1.35 µM | 0.23 ± 0.037 µM | 3.08 ± 0.63 µM | 0.17 µM | 0.21 µM | 1.4 µM | 
7 | Cc1cnc(CNC(=O)c2ccc(Cc3cc4c(cc3C)C(C)(C)CCC4(C)C)o2)cn1 [Compound 13] | 0.12 µM | 0.11 µM | 0.06 µM | 1.5 h |  |  | 0.12 ± 0.02 µM | 0.11 ± 0.02 µM | 0.06 ± 0.008 µM | 0.085 µM | 0.04 µM | > 3.2 µM | 
8 | COc1cccc(OC)c1NC(=O)c1ccc(Cc2cc3c(cc2C)C(C)(C)CCC3(C)C)o1 [Compound 20] | 0.02 µM | 0.008 µM | 0.005 µM | 0.867 h |  |  |  | 0.008 ± 0.0009 µM |  |  |  | > 3.2 µM | Cmax [1, 9]: 200 nM; Tmax [1, 9]: 1 h
9 | COc1cc(OC)c(NC(=O)c2ccc(Cc3cc4c(cc3C)CCCC4(C)C)o2)c(OC)c1 [Compound 183] | 0.0027 µM | 0.0068 µM | 0.0025 µM | 4.1 h | 1246 pmol/min/mg | Antag- onist |  |  |  |  |  |  | Cmax [1, 10]: 510 nM; Tmax [1, 10]: 1 h; half-life [1, 11]: 3.6 h; Cmax [1, 8]: 350 nM; Tmax [1, 8]: 1 h; Fp.o. [1, 12]: 37% (10 mg/kg)^10; Fp.o. ([1]; rat male, vehicle per footnote): 29% (10 mg/kg)^10
10 | COc1cc(OC)c(NC(=O)c2ccc(Cc3cc(C(C)(C)C)ccc3C)o2)c(OC)c1 [Compound 200] | 0.013 µM | 0.042 µM | 0.0028 µM |  | 595 pmol/min/mg | Antag- onist |  |  |  |  |  |  | Cmax [1, 10]: 960 nM; Tmax [1, 10]: 1.5 h; half-life [1, 11]: 2 h; Fp.o. [1, 12]: 33% (10 mg/kg)^10
